Experimental data as given in publication PMC8292346, “Dysfunction of the key ferroptosis-surveilling systems hypersensitizes mice to tubular necrosis during acute kidney injury” (Nature Communications, 2021).

Experiment: Inhibited co-autoxidation of egg phosphatidylcholine liposomes and STY-BODIPY (radical-trapping antioxidant activity)
Protocol: Inhibitors were then added (5 μl aliquots) at desired concentrations to the appropriate wells followed by vigorous mixing. […] Experiments were performed in triplicate using HPLC grade solvents and kinetic data is given as an average of three independent measurements. […]

Substance: 2,2,7,8-pentamethyl-6-chromanol [PMC, reference compound]
- ΔSTY-BODIPY (time 53820 s): -0.366 µM
- ΔSTY-BODIPY (time 53880 s): -0.3653 µM
- ΔSTY-BODIPY (time 53940 s): -0.3652 µM
- ΔSTY-BODIPY (time 54000 s): -0.3628 µM
